Values of other authors as cited in PMC11125333, “Self-Immolative Domino Dendrimers as Anticancer-Drug Delivery Systems: A Review” (Pharmaceutics, 2024).

Parameters: method as in PMID 25924099
Conditions: UV irradiation at 365 nm

CC[C@@]1(O)C(=O)OCc2c1cc1n(c2=O)Cc2cc3ccccc3nc2-1 [CAMP, camptothecin]
effect of UV irradiation on cytotoxicity / cell-killing efficacy: did not increase
